Holding throughout (assay type): cell-based
Experiment [1] relates to cancer cells with mtRAS including H358, AsPC-1, DU-145, SW480, and MDA-MB-231. The experiment is described as follows: Migration assay (scratch assay). To be noted: 0.01 µM. As to the method:
For migration assay, scratch assay was conducted. Each cells (2.0 × 10^5 cells/well) were seeded in 24-well plates. After cellular attachment, cells were scratched with a SPLScarTM Scratcher (SPL Life Sciences, #201924) and the detached cells were removed by PBS washing twice. Cells were incubated in complete media with 0.01 μM concentrations of each compounds for indicated time. The images were acquired before and after incubation with compounds (40× magnification), and percent of migration were accessed using ImageJ (n = 3).
Figure 6 The effects of SIJ1795 and SIJ1772 on migration and invasion activities of cancer cells harboring mtRAS. (A) Scratch assay result for cell migration ability determination. Each cell monolayers were scratched and incubated with test compounds at 0.01 μM. After 8 h (MDA-MB-231) or 24 h (DU-145, SW480, HCT-116) or 48 h (AsPC-1) or 72 h (HT-29), cells were stained with crystal violet. Migrated areas were photographed with 40× magnification. Migrated area was determined by ImageJ (n = 3). (B) Boyden chamber assay result for cell invasion ability determination. Indicated compounds of 0.01 μM were treated and incubated for 48 h Invaded cells were stained by crystal violet and photographed. Stained cells were counted by ImageJ (n = 3). Statistical significance was determined using a one-way ANOVA analysis (*p < 0.05, **p < 0.01, ***p < 0.001, ****p < 0.0001).

In another experiment the test system is HT-29 (KRAS-Q61L). Description: Anti-proliferation assay on HT-29. The note with it: Homo sapiens, HT-29; 72 h treatment; average with SD (n = 3, duplicate). The procedure: (§1) Ba/F3-parental, OCI-AML3, U397 cells were purchased from DSMZ. MDA-MB-231, HCT-116, AsPC-1, H358, HT-29, SW480, and DU-145 cells were obtained from KCLB. MDA-MB-468 cells were obtained from ATCC. All cells were maintained in RPMI with 10% FBS and antibiotics. Cells were grown in a humidified 5% CO2 incubator at 37°C. Ba/F3-parental cells were grown in the presence of 10 ng/ml IL-3. NRAS-G12D or NRAS-G12V transformed Ba/F3 cell lines (Ba/F3-NRAS-G12D, and Ba/F3-NRAS-G12V, respectively) were cultured without IL-3, which were established by the procedure described as previously ([30]).
(§2) Approximately 3.0 × 10^3 cells/well were seeded in a 96-well cell culture plate. After stabilization, 1/3 serially diluted compound in DMSO was treated to the cell. […] All GI50 values were obtained in duplicate with three independent assays and averages with standard deviation are presented.

A further experiment deals with MDA-MB-231 (KRAS-G13D). Description: Anti-proliferation assay on MDA-MB-231. To be noted: Homo sapiens, MDA-MB-231; 72 h treatment; average with SD (n = 3, duplicate). The procedure: as §1, §2
For experiment [2], the system named is phospho-AKT, -MEK, -ERK in Ba/F3-NRAS-G12D and Ba/F3-NRAS-G12V cells. Description: Western blot, phospho-AKT, -MEK, -ERK in Ba/F3 cells transformed with mtRAS. The note with it: 2 h; for inhibitory capabilities on phosphorylation level of MEK, ERK, and AKT at 1 µM relative to GNF-7: Ba/F3 mtRAS cells; for phospho-AKT, -MEK, -ERK levels at 10 µM: Ba/F3 cells transformed with mtRAS (NRAS-G12D and NRAS-G12V). The procedure:
Approximately 1 × 10^6 cells per well were seeded in a 6-well cell culture plate. After cell adhesion, each compounds were treated for 2 h with indicated concentration and conducted brief washing twice by ice-cold PBS. Cells were lysed by NP40 buffer (50 mM Tris–HCl pH 7.4, 1% NP40, 2 mM EDTA, 150 mM NaCl) in the presence of protease inhibitor cocktail (Roche, #11873580001) and phosphatase inhibitor cocktail (Roche, #04906837001). Each sample was loaded with same amount of total protein and separated by SDS-PAGE gel. After transferred to nitrocellulose membrane, blocking with 5% skim milk (in TBS/T) was followed. The membrane was incubated 4°C for overnight with uniformly diluted primary antibodies at 1:1,000 (v/v) in TBS/T. The following primary antibodies were used: anti-p-AKT (Cell Signaling, #9271), anti-p-ERK1/2 (Cell Signaling, #4370), anti-PARP (Cell Signaling, #9542), anti-GAPDH (Cell Signaling, #5174), anti-p-70S6K1 (Cell Signaling, #9204), anti-p-JNK(Cell Signaling, #9251), anti-p-p38 (Cell Signaling, #9216), and anti-p-MEK1/2 (Santa Cruz, sc-81503). Each membrane was incubated with HRP-conjugated goat anti-Rabbit secondary antibody (Gendepot, SA002-500) or HRP-conjugated goat anti-Mouse secondary antibody (Gendepot, SA001-500) for 1 h (1:10,000, v/v) in TBS/T at room temperature and followed ECL solution treatment. Chemiluminescence signals were detected by ImageQuant™ LAS 4000 (GE Healthcare).
Figure 1 The effects of (A) SIJ1795 and (B) SIJ1772 on MAPK and PI3K/AKT signaling pathways in Ba/F3 cells transformed with mtRAS (NRAS-G12D and NRAS-G12V). Cells were treated with 0.1, 1, and 10 μM of SIJ1795, SIJ1772, and GNF-7 for 2 h. Western blot analysis was conducted to evaluate the phospho-AKT, -MEK, -ERK levels. GAPDH was used as the loading control.
On the technique in general: A western blot detects proteins with antibodies after separation by electrophoresis.

The test system of experiment [3] is Ba/F3-NRAS-G12D and Ba/F3-NRAS-G12V cells. The experiment is described as follows: Flow cytometry apoptosis analysis (annexin V/PI), Ba/F3 mtRAS cells. To be noted: 1 μM, 24 h. The procedure: For apoptosis analysis, cells (1 × 10^6 cells per sample) were incubated with each compounds for 24 h. Cells were subjected to brief ice-cold PBS washing and subjected to staining with Alexafluor488-conjugated annexin V (Thermo Fisher, A13201), and propidium iodide (PI, Thermo Fisher, P3560). Thereafter, apoptotic cells were classified by FACS Accuri™ C6 Plus (BD Biosciences). Debris and unstained cells and were excluded by gating.
Figure 3 (A, B) The effects of SIJ1795 and SIJ1772 on apoptosis induction in Ba/F3 cells transformed with mtRAS (NRAS-G12D and NRAS-G12V). Cells were treated with 0.1 and 1 μM of SIJ1795, SIJ1772, and GNF-7 for 24 h Western blot analysis was conducted to evaluate the cleaved PARP and level. GAPDH was used as a loading control. (C) Apoptotic cell population (annexin V-positive) was determined by flow cytometry analysis (n = 3). Cells were treated with 1 μM of indicated compounds for 24 h. Statistical significance was calculated by a one-way ANOVA analysis (**p < 0.01, ***p < 0.001).

Another experiment concerns H358 (KRAS-G12C). Description: Anti-proliferation assay on H358. The note with it: Homo sapiens, NCI-H358; 72 h treatment; average with SD (n = 3, duplicate). The procedure: as §1, §2
Another experiment concerns AsPC-1 (KRAS-G12D). Description: Anti-proliferation assay on AsPC-1. To be noted: Homo sapiens, ASPC1; 72 h treatment; average with SD (n = 3, duplicate). The procedure: as §1, §2

Take `CCN1CCN(c2cccc(Nc3ncc4c(n3)N(C)C(=O)N(c3cc(NC(=O)c5cccc(C(F)(F)F)c5)ccc3C)C4)c2)CC1` [SIJ1795, N-(3-(7-((3-(4-Ethylpiperazin-1-yl)phenyl)amino)-1-methyl-2-oxo-1,4-dihydropyrimido[4,5-d]pyrimidin-3(2H)-yl)-4-methylphenyl)-3-(trifluoromethyl)benzamide]: the “reduction in migration capabilities” value in experiment [1] is “over 50%”. Also, the GI50 – broadly, the concentration that inhibits growth by half – with HT-29 (KRAS-Q61L) amounted to 154 ± 42 nM; in the experiment with MDA-MB-231 (KRAS-G13D), 53 ± 8 nM; in the experiment on H358 (KRAS-G12C), 203 ± 12 nM; in the experiment with AsPC-1 (KRAS-G12D), 144 ± 23 nM. Also, in experiment [2], the “inhibitory capabilities on phosphorylation level of MEK, ERK, and AKT at 1 µM relative to GNF-7” value is “slightly increased relative to that of GNF-7”. The “phospho-AKT, -MEK, -ERK levels at 10 µM” value in experiment [2] is on record as “completely inhibited”. For the same compound, the “apoptotic cells population (annexin V/PI) in Ba/F3-NRAS-G12D and Ba/F3-NRAS-G12V cells” value in experiment [3] is “increase of apoptotic cells”.

Consider `Cc1ccc(NC(=O)c2cccc(C(F)(F)F)c2)cc1N1Cc2cnc(Nc3cnn(C4CCN(S(C)(=O)=O)CC4)c3)nc2N(C)C1=O` [SIJ1772, N-(4-Methyl-3-(1-methyl-7-((1-(1-(methylsulfonyl)piperidin-4-yl)-1H-pyrazol-4-yl)amino)-2-oxo-1,4-dihydropyrimido[4,5-d]pyrimidin-3(2H)-yl)phenyl)-3-(trifluoromethyl)benzamide], for which the “reduction in migration capabilities” value in experiment [1] was “over 50%”. In addition, the GI50 was 192 ± 94 nM in the experiment on HT-29 (KRAS-Q61L), 58 ± 1 nM with MDA-MB-231 (KRAS-G13D), 125 ± 17 nM with H358 (KRAS-G12C) and 170 ± 32 nM in the experiment on AsPC-1 (KRAS-G12D). In experiment [2], the “inhibitory capabilities on phosphorylation level of MEK, ERK, and AKT at 1 µM relative to GNF-7” value is “slightly increased relative to that of GNF-7”. The “phospho-AKT, -MEK, -ERK levels at 10 µM” value in experiment [2] is “completely inhibited”. The “apoptotic cells population (annexin V/PI) in Ba/F3-NRAS-G12D and Ba/F3-NRAS-G12V cells” value in experiment [3] is given as “increase of apoptotic cells”.
